Measurements: patent US20230061736A1, “GPR119 AGONISTS” (Kallyope, Inc., priority 2019, published 2023)

Target: T1, human GPR119 (hGPR119) (Homo sapiens, UniProt Q8TDV5)
T1 construct: expressed in transfected cells
T1 sequence (Q8TDV5 1-335): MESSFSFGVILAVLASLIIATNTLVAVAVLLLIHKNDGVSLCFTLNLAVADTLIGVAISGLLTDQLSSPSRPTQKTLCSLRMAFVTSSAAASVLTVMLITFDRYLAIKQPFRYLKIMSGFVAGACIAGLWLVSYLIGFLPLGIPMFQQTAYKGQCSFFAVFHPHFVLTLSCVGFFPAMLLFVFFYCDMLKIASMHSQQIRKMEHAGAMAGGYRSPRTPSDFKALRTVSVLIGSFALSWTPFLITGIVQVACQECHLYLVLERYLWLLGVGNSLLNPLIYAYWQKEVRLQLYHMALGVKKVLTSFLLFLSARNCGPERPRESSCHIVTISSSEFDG
Assay: cAMP accumulation assay (cAMP Gs dynamic HTRF kit)
Format: cell-based
Conditions: CHO-K1 cells stably expressing hGPR119, 4-parameter fit; for Emax: 1 h, % activity normalized to Max/Min controls; for EC50: cAMP accumulation
How it was run: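 Read-out is HTRF 665/620 nm ratio after 1 h detection at ambient temperature, converted to % activity against positive and negative controls, EC50 and Max activity by 4-parameter fit. Compounds were titrated onto ~10,000 thawed hGPR119-CHO-K1 cells/well for 60 min at 37° C/5% CO2.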

| Emax | EC50 | Compound |
| --- | --- | --- |
| 100 to 130% | ≤ 100 nM | O=C(Cc1ccc(OCCCC2CCN(c3ncc(Cl)cn3)CC2)cc1F)N1CC[C@@H](CNC[C@H](O)[C@@H](O)[C@H](O)[C@H](O)CO)C1 [Example 98, 2-[4-[3-[1-(5-chloropyrimidin-2-yl)-4-piperidyl]propoxy]-2-fluoro-phenyl]-1-[(3S)-3-[[[(2S,3R,4R,5R)-2,3,4,5,6-pentahydroxyhexyl]amino]methyl]pyrrolidin-1-yl]ethanone] |
| ≥ 130% | ≤ 100 nM | O=C(Cc1ccc(OCCCC2CCN(c3ncc(Cl)cn3)CC2)cc1F)N1CC[C@@H](CNCC(O)(CO)CO)C1 [Example 99, 2-[4-[3-[1-(5-chloropyrimidin-2-yl)-4-piperidyl]propoxy]-2-fluoro-phenyl]-1-[(3S)-3-[[[2,3-dihydroxy-2-(hydroxymethyl)propyl]amino]methyl]pyrrolidin-1-yl]ethanone] |
| 100 to 130% | ≤ 100 nM | O=C(Cc1ccc(OCCCC2CCN(c3ncc(Cl)cn3)CC2)cc1F)N1CC[C@H](CNC[C@H](O)[C@@H](O)[C@H](O)[C@H](O)CO)C1 [Example 100, 2-[4-[3-[1-(5-chloropyrimidin-2-yl)-4-piperidyl]propoxy]-2-fluoro-phenyl]-1-[(3R)-3-[[[(2S,3R,4R,5R)-2,3,4,5,6-pentahydroxyhexyl]amino]methyl]pyrrolidin-1-yl]ethanone] |
| 100 to 130% | ≤ 100 nM | O=C(Cc1ccc(OCCCC2CCN(c3ncc(Cl)cn3)CC2)cc1F)N1CC[C@H](CNCC(O)(CO)CO)C1 [Example 101, 2-[4-[3-[1-(5-chloropyrimidin-2-yl)-4-piperidyl]propoxy]-2-fluoro-phenyl]-1-[(3R)-3-[[[2,3-dihydroxy-2-(hydroxymethyl)propyl]amino]methyl]pyrrolidin-1-yl]ethanone] |
| 100 to 130% | ≤ 100 nM | O=C(NC(CO)(CO)CO)[C@@H]1CCN(C(=O)Cc2ccc(OCCCC3CCN(c4ncc(Cl)cn4)CC3)cc2F)C1 [Example 102, (3R)-1-[2-[4-[3-[1-(5-chloropyrimidin-2-yl)-4-piperidyl]propoxy]-2-fluoro-phenyl]acetyl]-N-[2-hydroxy-1,1-bis(hydroxymethyl)ethyl]pyrrolidine-3-carboxamide] |
| 100 to 130% | ≤ 100 nM | O=C(NC(CO)(CO)CO)[C@H]1CCN(C(=O)Cc2ccc(OCCCC3CCN(c4ncc(Cl)cn4)CC3)cc2F)C1 [Example 103, (3S)-1-[2-[4-[3-[1-(5-chloropyrimidin-2-yl)-4-piperidyl]propoxy]-2-fluoro-phenyl]acetyl]-N-[2-hydroxy-1,1-bis(hydroxymethyl)ethyl]pyrrolidine-3-carboxamide] |
| 100 to 130% | 100 to 1000 nM | O=C(Cc1ccc(OCCC2CC3(CCN(c4ncc(Cl)cn4)CC3)C2)cc1F)N1CC(CNC[C@H](O)[C@@H](O)[C@H](O)[C@H](O)CO)C1 [Example 104, 2-[4-[2-[7-(5-chloropyrimidin-2-yl)-7-azaspiro[3.5]nonan-2-yl]ethoxy]-2-fluoro-phenyl]-1-[3-[[[(2S,3R,4R,5R)-2,3,4,5,6-pentahydroxyhexyl]amino]methyl]azetidin-1-yl]ethanone] |
| 100 to 130% | ≤ 100 nM | O=C(Cc1ccc(OCCCC2CC3(CCN(c4ncc(Cl)cn4)CC3)C2)cc1F)N1CC(CNC[C@H](O)[C@@H](O)[C@H](O)[C@H](O)CO)C1 [Example 105, 2-[4-[3-[7-(5-chloropyrimidin-2-yl)-7-azaspiro[3.5]nonan-2-yl]propoxy]-2-fluoro-phenyl]-1-[3-[[[(2S,3R,4R,5R)-2,3,4,5,6-pentahydroxyhexyl]amino]methyl]azetidin-1-yl]ethanone] |
| 100 to 130% | 1000 to 10000 nM | O=C(Cc1ccc(COCC2CC3(CCN(c4ncc(Cl)cn4)CC3)C2)cc1F)N1CC(CNC[C@H](O)[C@@H](O)[C@H](O)[C@H](O)CO)C1 [Example 107] |
| 100 to 130% | ≤ 100 nM | CCOc1cnc(N2CCC(CCCOc3ccc(CC(=O)N4CC(CC(=O)NCC(O)(CO)CO)C4)c(F)c3)CC2)nc1 [Example 108, N-[2,3-dihydroxy-2-(hydroxymethyl)propyl]-2-[1-[2-[4-[3-[1-(5-ethoxypyrimidin-2-yl)-4-piperidyl]propoxy]-2-fluoro-phenyl]acetyl]azetidin-3-yl]acetamide] |
| 100 to 130% | 100 to 1000 nM | O=C(Cc1ccc(OCCC2CC23CCN(c2ncc(Cl)cn2)CC3)cc1F)N1CC(CNC[C@H](O)[C@@H](O)[C@H](O)[C@H](O)CO)C1 (stereo partly drawn) [Example 110, 2-[4-[2-[6-(5-chloropyrimidin-2-yl)-6-azaspiro[2.5]octan-2-yl]ethoxy]-2-fluoro-phenyl]-1-[3-[[[(2S,3R,4R,5R)-2,3,4,5,6-pentahydroxyhexyl]amino]methyl]azetidin-1-yl]ethanone] |
| 50 to 100% | 1000 to 10000 nM | O=C(Cc1ccc(COCC2CC23CCN(c2ncc(Cl)cn2)CC3)cc1F)N1CC(CNC[C@H](O)[C@@H](O)[C@H](O)[C@H](O)CO)C1 (stereo partly drawn) [Example 111, 2-[4-[[6-(5-chloropyrimidin-2-yl)-6-azaspiro[2.5]octan-2-yl]methoxymethyl]-2-fluoro-phenyl]-1-[3-[[[(2S,3R,4R,5R)-2,3,4,5,6-pentahydroxyhexyl]amino]methyl]azetidin-1-yl]ethanone] |
| 100 to 130% | 100 to 1000 nM | CC(C)OC(=O)N1CCC(CCCOc2ccc(CC(=O)N3CC(CNC[C@H](O)[C@@H](O)[C@H](O)[C@H](O)CO)C3)c(F)c2)CC1 [Example 112, isopropyl 4-[3-[3-fluoro-4-[2-oxo-2-[3-[[[(2S,3R,4R,5R)-2,3,4,5,6-pentahydroxyhexyl]amino]methyl]azetidin-1-yl]ethyl]phenoxy]propyl] piperidine-1-carboxylate] |
| 100 to 130% | 100 to 1000 nM | O=C(Cc1ccc(OCCC[C@@H]2[C@H]3CN(c4ncc(Cl)cn4)C[C@@H]23)cc1F)N1CC(CNC[C@H](O)[C@@H](O)[C@H](O)[C@H](O)CO)C1 [Example 113, 2-[4-[3-[(1R,5S)-3-(5-chloropyrimidin-2-yl)-3-azabicyclo[3.1.0]hexan-6-yl]propoxy]-2-fluoro-phenyl]-1-[3-[[[(2S,3R,4R,5R)-2,3,4,5,6-pentahydroxyhexyl]amino]methyl]azetidin-1-yl]ethanone] |

| Compound | Emax | EC50 |
| --- | --- | --- |
| O=C(Cc1ccc(OCCCCC2CC3(CCN(c4ncc(Cl)cn4)CC3)C2)cc1F)N1CC(CNC[C@H](O)[C@@H](O)[C@H](O)[C@H](O)CO)C1 [Example 106, 2-[4-[4-[7-(5-chloropyrimidin-2-yl)-7-azaspiro[3.5]nonan-2-yl]butoxy]-2-fluoro-phenyl]-1-[3-[[[(2S,3R,4R,5R)-2,3,4,5,6-pentahydroxyhexyl]amino]methyl]azetidin-1-yl]ethanone] | 100 to 130% | 100 to 1000 nM |
| CC1(CCCCOc2ccc(CC(=O)N3CC(CNC[C@H](O)[C@@H](O)[C@H](O)[C@H](O)CO)C3)c(F)c2)CCN(c2ncc(Cl)cn2)CC1 [Example 109, 2-[4-[4-[1-(5-chloropyrimidin-2-yl)-4-methyl-4-piperidyl]butoxy]-2-fluoro-phenyl]-1-[3-[[[(2S,3R,4R,5R)-2,3,4,5,6-pentahydroxyhexyl]amino]methyl]azetidin-1-yl]ethanone] | 100 to 130% | 100 to 1000 nM |
